Test results taken from patent publication US20040250313A1, “Insecticidal proteins and synergistic combinations thereof” (priority 2001, published 2004).
Where “and” joins values, the source holds several entries; their conditions need not be identical. Equal values may be shown once. Positions of bridges follow the written chain, without caps; N, C: chain ends. Residues, ends and D or L forms follow the SMILES beside them. No end group written: not given here.

Assays:
Format in all cases: in vivo
Heliothis virescens [1] = experiment: Comparative insect bioassay on treated cotton leaves, neonate larvae in minipots; conditions: after three days; for corrected % kill: Abbott's formula corrected
Description: These were carried out between the synthetic peptide having the sequence depicted as SEQ ID No. 2 (also referred to as the GGK-445 peptide) and the insecticidal peptide obtainable from the fungus Paecilomyces farinosus (referred to as “445”) and described in International Patent Application Publication Number WO01/00841. This protein, having the sequence depicted as SEQ ID No. 41, was synthesised, purified and the N-terminal Glycine was acetylated.
(§1) Prior to the assay, twenty neonate Heliothis virescens larvae were gently brushed into each of three ‘minipot’ containers per treatment (i.e. three replicates per treatment). The peptide to be tested was diluted using sterile, deionised water to create a range of test concentrations for determination of a kill curve.
(§2) Three freshly excised cotton leaves per treatment had 0.05 ml of the appropriate peptide solution applied by pipette to the centre of the axial surface of each leaf. The droplet was then spread over a circular area in excess of the diameter of a minipot with a fine artists paint brush (a fresh paint brush being used for each compound to avoid contamination), the concentrations being applied from lowest to highest. The leaves were left in a fume cupboard just long enough for the surface deposit to dry, but care was taken to avoid excessive leaf wilting.
Once dry the leaves were placed, contaminated surface down over the appropriately labelled, pre-infested minipot and a lid snapped over it. The minipots were placed in plastic trays and placed in a controlled environment room at 25-27° C.
After three days the numbers of live larvae remaining were counted and percent mortality determined. Percent mortality for the peptide treatments was corrected in comparison with the water-treated control using the Abbott's formula. Damage to the leaf was also assessed and represented as percent feeding inhibition.

Spodoptera exigua = experiment: LC50 determination, cotton leaf bioassay as in Example 2; conditions: individual test, logit analysis
Heliothis virescens [2] = experiment: as above; conditions: individual test, logit analysis
Description: as §1, §2
Once dry the leaves were placed, contaminated surface down over the appropriately labelled, pre-infested minipot and a lid snapped over it. […]
After three days the numbers of live larvae remaining were counted and percent mortality determined. […] Damage to the leaf was also assessed and represented as percent feeding inhibition.
Mean LC50 values were determined for the synthetic peptide, GGK-445, having the amino acid sequence designated in SEQ ID No. 2. […]

Helicoverpa armigera = experiment: as above
Spodoptera littoralis = experiment: as above
[3] = individual test, logit analysis

Compound | % feeding reduction compared to control (Heliothis virescens [1]; dose 0.15 ppm) [%] | % feeding reduction compared to control (Heliothis virescens [1]; dose 0.46 ppm) [%] | % feeding reduction compared to control (Heliothis virescens [1]; dose 1.37 ppm) [%] | % feeding reduction compared to control (Heliothis virescens [1]; dose 4.12 ppm) [%] | % feeding reduction compared to control (Heliothis virescens [1]; dose 12.35 ppm) [%] | % feeding reduction compared to control (Heliothis virescens [1]; dose 37.04 ppm) [%] | % feeding reduction compared to control (Heliothis virescens [1]; dose 111.11 ppm) [%] | % feeding reduction compared to control (Heliothis virescens [1]; dose 333.33 ppm) [%] | % feeding reduction compared to control (Heliothis virescens [1]; dose 1000 ppm) [%] | also measured
Y1945F - synthesised, acetylated-445: insecticidal peptide obtainable from the fungus Paecilomyces farinosus, described in WO01/00841; SEQ ID No. 41, synthesised, purified, N-terminal Glycine acetylated (Ac-GKICTPAGVKCPAALPCCPGLRCIGGVNNKVCR; cysteine pairing not given here) | 0.0 | 0.0 | 0.0 | 43.8 | 68.8 | 68.8 | 83.8 | 88.8 | 91.3 | corrected % kill (Heliothis virescens [1]; dose 0.15 ppm): 0.0%; corrected % kill (Heliothis virescens [1]; dose 0.46 ppm): 5.6%; corrected % kill (Heliothis virescens [1]; dose 1.37 ppm): 13.0%; corrected % kill (Heliothis virescens [1]; dose 4.12 ppm): 48.1%; corrected % kill (Heliothis virescens [1]; dose 12.35 ppm): 75.9%; corrected % kill (Heliothis virescens [1]; dose 37.04 ppm): 72.2%; corrected % kill (Heliothis virescens [1]; dose 111.11 ppm): 98.1%; corrected % kill (Heliothis virescens [1]; dose 333.33 ppm): 98.1%; corrected % kill (Heliothis virescens [1]; dose 1000 ppm): 100.0%
CC[C@H](C)[C@@H]1NC(=O)[C@@H]2CSSC[C@@H]3NC(=O)[C@H](CCCCN)NC(=O)[C@H](C(C)C)NC(=O)CNC(=O)[C@H](C)NC(=O)[C@@H]4CCCN4C(=O)[C@H]([C@@H](C)O)NC(=O)[C@@H](NC(=O)[C@@H](NC(=O)[C@H](CCCCN)NC(=O)CNC(=O)CN)[C@@H](C)CC)CSSC[C@H](NC(=O)[C@H](CSSC[C@@H](C(=O)N[C@@H](CCCNC(=N)N)C(=O)O)NC(=O)[C@H](C(C)C)NC(=O)[C@H](CCCCN)NC(=O)[C@H](CC(N)=O)NC(=O)[C@H](CC(N)=O)NC(=O)[C@H](C(C)C)NC(=O)CNC(=O)CNC1=O)NC(=O)[C@@H]1CCCN1C(=O)[C@H](CC(C)C)NC(=O)[C@H](C)NC(=O)[C@H](C)NC(=O)[C@@H]1CCCN1C3=O)C(=O)N1CCC[C@H]1C(=O)NCC(=O)N[C@@H](CC(C)C)C(=O)N[C@@H](CCCNC(=N)N)C(=O)N2 [GGK-445] (H-GGKICTPAGVKCPAALPCCPGLRCIGGVNNKVCR-OH; disulfide 5-19, 12-24, 18-33; N-terminus and C-terminus assumed) | 0.0 | 0.0 | 0.0 | 6.4 | 6.4 | 25.1 | 50.1 | 62.5 | 81.3 | LC50 (Spodoptera exigua): 339.21 ppm and 972.5 ppm and 271.32 ppm; LC50 (Heliothis virescens [2]): 171.15 ppm; LC50 (Helicoverpa armigera; [3]): 113.24 ppm and 421.93 ppm; mean LC50 (Helicoverpa armigera; mean of individual tests): 657.21 ppm; LC50 (Spodoptera littoralis; [3]): 283.26 ppm and 626.72 ppm and 371.71 ppm and 201.91 ppm; mean LC50 (Spodoptera littoralis; mean of individual tests): 343.75 ppm
